The experiment deals with T1, Human GLP-1 receptor (Homo sapiens, UniProt P43220).
T1 construct: expressed in transfected cells
Description: Measurement of GLP-1 receptor agonist activity (cAMP assay). The format is cell-based. As to conditions: for Emax: CHO-K1, hGLP-1R/CHO-K1 cells, cAMP, 100% = human GLP-1 (7-36) at 2 nM, 0% = DMSO only, read-out: Emax(%); for EC50: hGLP-1R/CHO-K1 cells, cAMP increase, 37° C. 1 hour. The method, then: Test Example 1: (Measurement of GLP-1 Receptor Agonist Activity)
Human GLP-1 receptor stably expressing cells (hGLP-1R/CHO-K1 cells) are cultured in an α-MEM medium (Sigma) containing 10% FBS (Hyclone), 2% GlutaMAX (Gibco), 1% G418 (Nacalai Tesque), and 1% Penicillin-Streptomycin Mixed Solution (Sigma) at 37° C. under 5% CO2 conditions, and recovered by treating a 10 fold diluted 5.0 g/l-trypsin/5.3 mmol/l-EDTA solution (Nacalai Tesque) and cryopreserved.
A DMSO solution containing the compound of the present invention or human GLP-1 (7-36) (Phoenix Pharmaceuticals) is dispensed into a 384-well microplate (Greiner) at 62.5 nL/well, and in addition, 400 μM Forskolin (Nacalai Tesque) is dispensed therein at 7.5 nL/well. Subsequently, the frozen GLP-1 R/CHO-K1 cells are thawed in a thermostatic bath at 37° C., suspended in HBSS buffer (GIBCO) containing 0.1% BSA (Sigma), 20 mM HEPES (GIBCO), 0.1 mM IBMX (Sigma), and 0.2 mM RO20-1724 (Calbiochem) at 2×10^4 cells/mL, and the cell suspension is added at 6 μL/well. The solution was incubated at 37° C. for 1 hour and intracellular cAMP concentration is measured using cAMP Gs dynamic kit (Cisbio) according to the protocol attached to the product. Specifically, cAMP-d2 and Anti-cAMP-Cryptate are each added in an amount of 3 μL/well, the mixture is incubated at room temperature for 1 hour, and time-resolved fluorescence is measured using PHERAstar (BMG Labtech).
The dilution concentration or the dilution solvent are changed as necessary.
The compounds of the present invention were tested essentially as described above.
(In general: Cyclic AMP is a second messenger, typically raised through Gs and lowered through Gi signalling.)

SMILES strings stand for the structures.

The Emax is the maximal effect, on the per cent scale that the assay sets. A word on the EC50: it is the concentration that produces a half-maximal response.

T1 sequence (P43220 24-463): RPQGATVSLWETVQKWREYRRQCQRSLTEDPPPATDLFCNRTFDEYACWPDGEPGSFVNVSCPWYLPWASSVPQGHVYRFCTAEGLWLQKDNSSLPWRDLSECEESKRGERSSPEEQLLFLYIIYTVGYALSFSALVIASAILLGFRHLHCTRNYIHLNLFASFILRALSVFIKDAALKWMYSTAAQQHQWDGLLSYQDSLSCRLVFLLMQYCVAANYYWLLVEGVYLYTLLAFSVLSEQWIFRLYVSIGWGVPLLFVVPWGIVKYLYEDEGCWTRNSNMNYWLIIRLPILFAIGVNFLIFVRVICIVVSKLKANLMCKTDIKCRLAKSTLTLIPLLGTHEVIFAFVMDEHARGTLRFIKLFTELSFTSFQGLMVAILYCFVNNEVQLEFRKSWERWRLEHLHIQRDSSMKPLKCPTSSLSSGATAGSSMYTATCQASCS

Turning to `O=C(O)c1ccc2nc(CN3CCc4cc(C(F)(F)F)c(OCc5ccc(Cl)cc5F)cc4C3)n(Cc3ncco3)c2c1` [Compound I-052], the Emax is 92% and the 50% effective concentration (EC50) came out at 24.5 nM.

`N#Cc1ccc(COc2cc3c(cc2C(F)(F)F)CCN(Cc2nc4ccc(C(=O)O)cc4n2C[C@@H]2CCO2)C3)c(F)c1` [Compound I-053]: the maximum response (Emax) worked out at 115% and the response was half-maximal at 14.6 nM (EC50).

For `O=C(O)c1ccc2nc(CN3CCc4cc(C(F)(F)F)c(OCc5ccc(Cl)cc5F)cc4C3)n(C[C@@H]3CCO3)c2c1F` [Compound I-054], the Emax came to 104% and the 50% effective concentration (EC50) turned out to be 0.948 nM.

Regarding `O=C(NS(=O)(=O)C1CC1)c1ccc2nc(CN3CCc4cc(C(F)(F)F)c(OCc5ccc(Cl)cc5F)cc4C3)n(C[C@@H]3CCO3)c2c1` [Compound I-055], the Emax came out at 87.3% and the EC50 amounted to 78.8 nM.

As for `O=C(O)c1ccc2nc(CN3CCc4cc(C(F)(F)F)c(OCc5ccc(C(F)F)cc5F)cc4C3)n(C[C@@H]3CCO3)c2c1` [Compound I-056], the maximum response (Emax) is 110% and the 50% effective concentration (EC50) was 6.04 nM.

Turning to `O=C(O)c1ccc2nc(CN3CCc4cc(C(F)(F)F)c(OCc5ccc(Cl)c(F)c5F)cc4C3)n(C[C@@H]3CCO3)c2c1` [Compound I-059], the maximal response (Emax) was 112% and the half-maximal effective concentration (EC50) stood at 29.9 nM.

As to `O=C(O)c1cc(Cl)c2nc(CN3CCc4cc(C(F)(F)F)c(OCc5ccc(Cl)cc5F)cc4C3)n(C[C@@H]3CCO3)c2c1` [Compound I-061], the maximum response (Emax) worked out at 113% and the 50% effective concentration (EC50) is 1.56 nM.

Regarding `O=C(O)c1ccc2nc(CN3CCc4nc(C(F)(F)F)c(OCc5ccc(Cl)cc5F)cc4C3)n(C[C@@H]3CCO3)c2c1` [Compound I-062], the maximal effect (Emax) is 98.3% and the EC50 amounted to 11.6 nM.

Regarding `O=C(O)c1ccc2nc(CN3CCc4cc(C(F)(F)F)c(OCc5ccc(Cl)cc5F)cc4C3)n(CCOC(F)F)c2c1` [Compound I-063], the maximal effect (Emax) turned out to be 128% and it took 98.1 nM to reach a half-maximal effect (EC50).

For `O=C(O)c1ccc2nc(CN3CCc4cc(C(F)(F)F)c(OCc5cc(F)c(Cl)cc5F)cc4C3)n(C[C@@H]3CCO3)c2c1` [Compound I-064], the Emax amounted to 102% and it took 5.74 nM to reach a half-maximal effect (EC50).

For `Fc1cc(Cl)ccc1COc1cc2c(cc1C(F)(F)F)CCN(Cc1nc3ccc(-c4nnn[nH]4)cc3n1C[C@@H]1CCO1)C2` [Compound I-065], the Emax stood at 116% and the EC50 turned out to be 9.82 nM.

Turning to `O=C(O)c1ccc2nc(CN3CCc4cc(C(F)(F)F)c(OCc5ccc(Cl)cn5)cc4C3)n(C[C@@H]3CCO3)c2c1` [Compound I-067], the Emax turned out to be 130% and the EC50 amounted to 3.33 nM.

For `O=C(O)c1ccc2nc(CN3CCc4cc(C(F)(F)F)c(OCc5ncc(Cl)cc5F)cc4C3)n(C[C@@H]3CCO3)c2c1` [Compound I-068], the Emax came to 114% and the half-maximal effective concentration (EC50) is 3.54 nM.

As for `Cn1ccc(COc2cc3c(cc2C(F)(F)F)CCN(Cc2nc4ccc(C(=O)O)cc4n2C[C@@H]2CCO2)C3)n1` [Compound I-069], the Emax came out at 116% and the EC50 is 7.28 nM.

For the compound `Cc1cc(COc2cc3c(cc2C(F)(F)F)CCN(Cc2nc4ccc(C(=O)O)cc4n2C[C@@H]2CCO2)C3)no1` [Compound I-070], the maximal response (Emax) was 119% and a half-maximal effect (EC50) was put at 23.4 nM.

For `Cn1cc(COc2cc3c(cc2C(F)(F)F)CCN(Cc2nc4ccc(C(=O)O)cc4n2C[C@@H]2CCO2)C3)cn1` [Compound I-071], the Emax is 114% and the concentration for a half-maximal effect (EC50) is 63.9 nM.

For `Cn1nnc2cc(COc3cc4c(cc3C(F)(F)F)CCN(Cc3nc5ccc(C(=O)O)cc5n3C[C@@H]3CCO3)C4)ccc21` [Compound I-072], the maximal effect (Emax) came out at 127% and a half-maximal effect (EC50) was put at 12.6 nM.

With `O=C(O)c1ccc2nc(CN3CCc4cc(C(F)(F)F)c(OCc5ccc6c(c5)CCC6)cc4C3)n(C[C@@H]3CCO3)c2c1` [Compound I-074], the maximal response (Emax) is 100% and a half-maximal response (EC50) required 40 nM.

With `O=C(O)c1ccc2nc(Cc3ccc4nc(C(F)(F)F)c(OCc5ccc(Cl)cc5F)nc4c3)n(C[C@@H]3CCO3)c2c1` [Compound I-076], the Emax worked out at 108% and the EC50 worked out at 1.59 nM.

`O=C(O)c1ccc2nc(CN3CCc4cc(C(F)(F)F)c(OCc5ccc(Cl)cc5F)cc4C3)n(C[C@@H]3CCO3)c2c1Cl` [Compound I-078]: the maximal response (Emax) came to 112% and a half-maximal effect (EC50) was put at 28.6 nM.

Turning to `O=C(O)c1ccc2nc(CN3CCc4cc(C(F)(F)F)c(OCc5ccc(F)cc5)cc4C3)n(C[C@@H]3CCO3)c2c1` [Compound I-079], the maximum response (Emax) was determined as 103% and it took 6.8 nM to reach a half-maximal effect (EC50).

With `O=C(O)c1ccc2nc(CN3CCc4cc(C(F)(F)F)c(OCc5ccc(Cl)cc5)cc4C3)n(C[C@@H]3CCO3)c2c1` [Compound I-080], the Emax was found to be 103% and the EC50 came to 3.89 nM.

As for `O=C(O)c1ccc2nc(CN3CCc4cc(C(F)(F)F)c(OCc5ccc(C(F)F)cc5)cc4C3)n(C[C@@H]3CCO3)c2c1` [Compound I-081], the maximal response (Emax) is 101% and a half-maximal effect (EC50) was put at 7.66 nM.

Take `O=C(O)c1ccc2nc(CN3CCc4cc(C(F)(F)F)c(OCc5ccc(OC(F)F)cc5)cc4C3)n(C[C@@H]3CCO3)c2c1` [Compound I-082]: the Emax came out at 103% and the EC50 is 2.32 nM.

As to `O=C(O)c1ccc2nc(CN3CCc4cc(C(F)(F)F)c(OCc5ccc(C(F)(F)F)cc5)cc4C3)n(C[C@@H]3CCO3)c2c1` [Compound I-083], the Emax is 93% and the concentration giving a half-maximal response (EC50) came to 21.4 nM.

On to `O=C(O)c1ccc2nc(CN3CCc4cc(C(F)(F)F)c(OCc5ccc(OC(F)(F)F)cc5)cc4C3)n(C[C@@H]3CCO3)c2c1` [Compound I-084], for which the maximal response (Emax) is 106% and the EC50 amounted to 91.9 nM.

For `Cc1ccc(COc2cc3c(cc2C(F)(F)F)CCN(Cc2nc4ccc(C(=O)O)cc4n2C[C@@H]2CCO2)C3)cc1` [Compound I-085], the maximal response (Emax) worked out at 111% and the concentration for a half-maximal effect (EC50) was found to be 4.47 nM.

With `CS(=O)(=O)c1ccc(COc2cc3c(cc2C(F)(F)F)CCN(Cc2nc4ccc(C(=O)O)cc4n2C[C@@H]2CCO2)C3)cc1` [Compound I-086], the Emax was 106% and the midpoint of the response, the EC50, lay at 17.9 nM.

Turning to `O=C(O)c1ccc2nc(CN3CCc4cc(C(F)(F)F)c(OCc5ccccc5-c5ccccc5)cc4C3)n(C[C@@H]3CCO3)c2c1` [Compound I-088], the Emax was 147% and the midpoint of the response, the EC50, lay at 7.81 nM.

As to `O=C(O)c1ccc2nc(CN3CCc4cc(C(F)(F)F)c(OCc5ccccc5Cl)cc4C3)n(C[C@@H]3CCO3)c2c1` [Compound I-090], the Emax amounted to 106% and the EC50 was 6.6 nM.

Regarding `O=C(O)c1ccc2nc(CN3CCc4cc(C(F)(F)F)c(OCc5ccc(F)c(F)c5)cc4C3)n(C[C@@H]3CCO3)c2c1` [Compound I-093], the Emax stood at 111% and the EC50 amounted to 16.6 nM.

For the compound `O=C(O)c1ccc2nc(CN3CCc4cc(C(F)(F)F)c(OCc5ccc(F)c(F)c5F)cc4C3)n(C[C@@H]3CCO3)c2c1` [Compound I-094], the Emax turned out to be 102% and the concentration for a half-maximal effect (EC50) stood at 28.5 nM.

On to `O=C(O)c1ccc2nc(CN3CCc4cc(C(F)(F)F)c(OCc5cc(F)c(F)cc5F)cc4C3)n(C[C@@H]3CCO3)c2c1` [Compound I-095], for which the maximal effect (Emax) was determined as 112% and the response was half-maximal at 10.5 nM (EC50).

For the compound `O=C(O)c1ccc2nc(CN3CCc4cc(C(F)(F)F)c(OCc5ccc(F)cc5Cl)cc4C3)n(C[C@@H]3CCO3)c2c1` [Compound I-097], the Emax was determined as 105% and the EC50 amounted to 2.42 nM.

On to `O=C(O)c1ccc2nc(CN3CCc4cc(C(F)(F)F)c(OCc5ccc(Cl)c(F)c5)cc4C3)n(C[C@@H]3CCO3)c2c1` [Compound I-098], for which the Emax came out at 120% and the EC50 came to 10.9 nM.

Turning to `O=C(O)c1ccc2nc(CN3CCc4cc(C(F)(F)F)c(OCc5ccc(Cl)cc5Cl)cc4C3)n(C[C@@H]3CCO3)c2c1` [Compound I-099], the maximum response (Emax) stood at 114% and the EC50 was 1.43 nM.

`O=C(O)c1ccc2nc(CN3CCc4cc(C(F)(F)F)c(OCc5ccc(Cl)cc5C(F)(F)F)cc4C3)n(C[C@@H]3CCO3)c2c1` [Compound I-100]: the maximal effect (Emax) is 90.7% and the concentration giving a half-maximal response (EC50) was 95.2 nM.

Turning to `O=C(O)c1ccc2nc(CN3CCc4cc(C(F)(F)F)c(OCc5c(F)cc(Cl)cc5F)cc4C3)n(C[C@@H]3CCO3)c2c1` [Compound I-101], the Emax worked out at 113% and the EC50 is 2.23 nM.

Regarding `O=C(O)c1ccc2nc(CN3CCc4cc(C(F)(F)F)c(OCc5ccc(C6CC6)cc5)cc4C3)n(C[C@@H]3CCO3)c2c1` [Compound I-102], the Emax amounted to 106% and it took 5.09 nM to reach a half-maximal effect (EC50).

With `N#Cc1ccc(COc2cc3c(cc2C(F)(F)F)CCN(Cc2nc4ccc(C(=O)O)cc4n2C[C@@H]2CCO2)C3)cc1` [Compound I-103], the maximum response (Emax) came out at 113% and the concentration giving a half-maximal response (EC50) was determined as 5.6 nM.

(Values after patent US20240217966A1, “PHARMACEUTICAL COMPOSITION CONTAINING GLP-1 RECEPTOR AGONIST HAVING FUSED RING” (Shionogi & Co., Ltd., priority 2021, published 2024).)
